Results from patent US5648379A (priority 1990, dated 1997).
Values after ≈ are worked out from the molar mass of the structure shown.

Tests used:
[1] = system: Vibrio cholerae neuraminidase; settings: literature; cited from earlier work
sheep neuraminidase = experiment: In vitro inhibition of sheep neuraminidase; type: biochemical; settings: pH 4.5
[2] = system: H2N2 influenza A virus (A/Sing/1/57); type: in vivo, mice
[3] = system: influenza A/Singapore/1/57 (H2N2); experiment: microbe, parasite or virus in culture; type: cell-based; settings: H2N2, MDCK, 72 h, read-out: IC50 Plaque Reduction, Influenza A
[4] = system: Influenza B/Victoria/102/85; experiment: microbe, parasite or virus in culture; type: cell-based; settings: MDCK, 72 h, read-out: IC50 Plaque Reduction, Influenza B
influenza virus = experiment: microbe, parasite or virus in culture; type: cell-based; settings: unidentified influenza virus, read-out: IC50 plaque reduction
[5] = Effective dose in vivo (statement in description); settings: compared with DANA

## CC(=O)NC1C(O)CC(C(=O)O)OC1C(O)C(O)CO (centres unmarked)
[1]
  inhibition of Vibrio cholerae neuraminidase: did not inhibit

## CC(=O)N[C@H]1[C@H]([C@H](O)[C@H](O)CO)OC(C(=O)O)=C[C@@H]1N=C(N)N [Compound 7, Ammonium 5-Acetamido-4-guanidino-2,3,4,5-tetradeoxy-D-glycero-D-galacto-non-2-enopyranosonate]
Sheep neuraminidase
  Ki: > 10 mM
[2]; Experiment 2, 12.5 mg/kg intranasal, days 1-3
  % AUC (lung virus titre, compared to untreated mice): 0.03%
[2]; intranasal, before and during challenge, 1 to 3 days after infection
  titre of virus in lung tissue: reduced the titre of virus in lung tissue
[3]
  IC50: 1600 nM
[4]
  IC50: 1600 nM

## COC(=O)C1=C[C@H](O)[C@@H](NC(C)=O)[C@H]([C@H](O)[C@H](O)CO)O1 [methyl ester of DANA]
Influenza virus
  IC50: 50 to 100 µg/mL (≈ 164 to 328 µM)
[5]
  effective dose, in words: effective at proportionally higher dose
